Assay [1] in a line: Inhibition of HCV NS3 protease assessed as hydrolysis of chromogenic 4-phenylazophenyl ester from peptide fragment Ac-DTEDVVP(Nva)-O-4-PAP by spectrophotometry. Also on record: species or system Hepacivirus hominis.
The subject of the next assay is Hepatitis C virus. Nature of the assay: Inhibition of HCV subgenomic RNAs replication in human hepatoma cells. The class given is functional, Hepacivirus hominis.

A value given as a limit tells only on which side of the number the result lay.

Take `CC(C)(C)NC(=O)N[C@H](C(=O)N1C[C@H]2[C@@H](C1C(=O)N[C@@H](CC1CCC1)B1O[C@@H]3C[C@@H]4C[C@@H](C4(C)C)[C@]3(C)O1)C2(C)C)C(C)(C)C` (stereo partly drawn): the Ki in assay [1] was found to be 10 nM. The EC90 with Hepatitis C virus was greater than 5000 nM.
In the case of `CC[C@H](NC(=O)[C@@H]1[C@@H]2[C@H](CN1C(=O)[C@@H](NC(=O)N[C@H](CN(C)S(C)(=O)=O)C(C)(C)C)C(C)(C)C)C2(C)C)B1O[C@@H]2C[C@@H]3C[C@@H](C3(C)C)[C@]2(C)O1`, the Ki in assay [1] is 34 nM. For the same compound, the EC90 in the assay with Hepatitis C virus was greater than 5000 nM.
As for `CC[C@H](NC(=O)[C@@H]1[C@@H]2[C@H](CN1C(=O)[C@@H](NC(=O)NC(C)(C)C)C(C)(C)C)C2(C)C)B1O[C@@H]2C[C@@H]3C[C@@H](C3(C)C)[C@]2(C)O1`, the Ki in assay [1] was determined as 500 nM. In the assay on Hepatitis C virus, the 90% effect concentration (EC90) is greater than 5000 nM.
Consider `CC[C@H](NC(=O)[C@@H]1[C@@H]2[C@H](CN1C(=O)[C@@H](NC(=O)NC(C)(C)C)C(C)(C)C)C2(C)C)B(O)O`, for which the inhibition constant Ki in assay [1] was 10 nM. In the assay with Hepatitis C virus, this compound returned an EC90 greater than 5000 nM.
On to `CC[C@H](NC(=O)[C@@H]1[C@@H]2[C@H](CN1C(=O)[C@@H](NC(=O)N[C@H](CN(C)S(C)(=O)=O)C(C)(C)C)C(C)(C)C)C2(C)C)B(O)O`, for which the Ki in assay [1] came to 52 nM. In the assay with Hepatitis C virus, this compound showed an EC90 greater than 5000 nM.
On to `CN(C[C@@H](NC(=O)N[C@H](C(=O)N1C[C@H]2[C@@H]([C@H]1C(=O)N[C@@H](CC1CCC1)B(O)O)C2(C)C)C(C)(C)C)C(C)(C)C)S(C)(=O)=O`, for which the Ki in assay [1] was 0.2 nM. This compound showed an EC90 in the assay with Hepatitis C virus greater than 5000 nM.
As for `CN(C[C@@H](NC(=O)N[C@H](C(=O)N1C[C@H]2[C@@H]([C@H]1C(=O)N[C@@H](CC1CCC1)B1O[C@@H]3C[C@@H]4C[C@@H](C4(C)C)[C@]3(C)O1)C2(C)C)C(C)(C)C)C(C)(C)C)S(C)(=O)=O`, the inhibition constant Ki in assay [1] is 0.5 nM. The EC90 with Hepatitis C virus was greater than 5000 nM.
Consider `CC[C@H](NC(=O)C1[C@@H]2[C@H](CN1C(=O)[C@@H](NC(=O)NC(C)(C)C)C(C)(C)C)C2(C)C)B1O[C@@H]2C[C@@H]3C[C@@H](C3(C)C)[C@]2(C)O1` (stereo partly drawn), for which the Ki in assay [1] is 380 nM. Moreover, the EC90 with Hepatitis C virus was greater than 5000 nM.
On to `CC(C)(C)NC(=O)N[C@H](C(=O)N1C[C@H]2[C@@H]([C@H]1C(=O)NC(CC1CCC1)C(=O)C(N)=O)C2(C)C)C(C)(C)C` (stereo partly drawn) [BOCEPREVIR], for which the Ki in assay [1] is 14 nM. The 90% effect level in the assay on Hepatitis C virus (EC90) was put at 350 nM.

What is called Ki is a measure of affinity in units of concentration, obtained from inhibition or displacement. In general, EC90 refers to the point of the concentration-response curve where the effect stands at 90%. A lower EC90 goes with greater potency.

Values taken from ChEMBL document CHEMBL1139280, “Potent inhibitors of HCV-NS3 protease derived from boronic acids” (Bioorg Med Chem Lett, 2009).
